Non-standard residues stand in square brackets, D forms with d. No end group written: not given here. pY = N[C@@H](Cc1ccc(OP(=O)(O)O)cc1)C(=O)O
Columns and labels:
[1] = test system: angiogenesis in VEGF-A-containing Matrigel; assay: Matrigel plug assay, neovascularization by hemoglobin assay (Example 4); assay type: in vivo; details: 50 mM peptide in 500 μL Matrigel with VEGF (60 ng/mL) and heparin, subcutaneous, 7 days, C57/Bl6 mice
Method: Matrigel plug assays were performed in age- and sex-matched C57/Bl6 background mice. Each animal received an abdominal subcutaneous injection of 500 μL Matrigel mixed with VEGF (60 ng/mL), heparin (60 units/mL) and 50 mM of control ([…] G DTANNPL […]-COOH) (SEQ ID NO: 14) or beta-3 integrin cytoplasmic domain inhibitory peptide ([…] G DTANNPL Yp […]-COOH) (SEQ ID NO: 2). After 7 days, the animals were euthanized and dissected. Matrigel plugs were removed and digested using 5 mL Drabkin reagent and neovascularization was assessed using a hemoglobin assay as per the manufacturer's protocol (FIG. 16).

[2] = test system: β3 integrin; assay: β3 integrin tyrosine phosphorylation (Tyr-747 and 759) in HUVECs, Western blot; assay type: cell-based, Human; details: adherent endothelial cells plated on vitronectin
Method: αvβ3 integrin is expressed on proliferating endothelial cells during angiogenesis and vascular remodeling and the blockade of αvβ3 integrin suppressed angiogenesis in several in vivo models. Therefore, we assessed whether the blockade of αvβ3 affected tyrosine phosphorylation of β3 subunit. […] Cells were also treated with non-immune IgG as control. These cells were washed and further induced with VEGF for 5 min at 37° C. Cell lysates were analyzed for phosphorylation of β3 integrin (Tyr-747 and 759). […] Basal level of β3 integrin tyrosine phosphorylation remains unaffected irrespective of different blocking antibody treatment. To further examine consequences of αvβ3 integrin blocking antibodies, cell lysates were analyzed for tyrosine phosphorylation of VEGFR-2 (Tyr-1175).
Cytoplasmic domains of integrin β subunits are highly conserved and represents region of structural homology between the various groups. […] Cell lysates were analyzed for the phosphorylation of β3 integrin. […]
Cells were lysed in immunoprecipitation lysis buffer (1% Noniodet P-40, 150 mM NaCl, 50 mM Tris-HCL (pH 7.8), 2 mM EDTA, 10 mM NaF, 10 mM Na2P2O7, 2 mM Na3VO4 10 μg/mL leupeptin, 4 μg/mL pepstatin and 0.1 U/mL aprotinin). […] Bands were analyzed by densitomeric analysis using Kodak 1D software and fold changes were indicated.

[3] = biological target: T1, c-Src (Homo sapiens, UniProt P12931); assay: In vitro kinase assay, c-Src phosphorylation of β3 integrin cytoplasmic domain or peptides; assay type: biochemical; details: [γ-32P] ATP incorporation
T1 construct: c-Src was immunoprecipitated from VEGF-stimulated HUVEC; endogenous in cells; host or cells: HUVEC (immunoprecipitate)
T1 sequence (P12931 whole entry, the tested form may be a part): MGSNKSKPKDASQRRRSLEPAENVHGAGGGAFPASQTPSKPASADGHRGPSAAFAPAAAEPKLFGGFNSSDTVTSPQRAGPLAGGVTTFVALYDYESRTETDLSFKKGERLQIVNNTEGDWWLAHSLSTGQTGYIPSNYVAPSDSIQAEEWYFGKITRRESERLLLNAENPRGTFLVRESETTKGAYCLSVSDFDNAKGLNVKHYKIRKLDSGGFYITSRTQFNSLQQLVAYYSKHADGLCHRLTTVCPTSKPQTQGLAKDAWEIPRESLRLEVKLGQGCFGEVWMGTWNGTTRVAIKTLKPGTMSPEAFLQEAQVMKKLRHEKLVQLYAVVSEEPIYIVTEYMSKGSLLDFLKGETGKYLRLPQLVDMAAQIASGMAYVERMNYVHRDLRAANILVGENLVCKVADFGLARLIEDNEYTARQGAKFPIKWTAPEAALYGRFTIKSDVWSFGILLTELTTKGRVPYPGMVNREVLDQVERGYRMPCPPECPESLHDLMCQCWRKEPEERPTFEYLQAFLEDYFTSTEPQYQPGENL
Text: Principle mechanism by which integrins appear to mediate the transfer of information from extracellular environment to intracellular milieu is through phosphorylation of β-subunit at cytoplasmic tyrosine motifs. Ligand occupancy of αvβ3 is a prerequisite for the tyrosine phosphorylation events and implying an important role for outside-in integrin signaling in this process. To examine whether c-Src can directly mediate β3 integrin tyrosine phosphorylation, c-Src was immunoprecipitated from VEGF-stimulated HUVEC. Immunocomplex were incubated with a full-length purified β3 integrin cytoplasmic domain, and [γ-^32P] ATP incorporation into was monitored. […] Recombinant purified c-Src also phosphorylated the β3 integrin whereas no phosphorylation was observed without the substrate, indicating the specificity of the reaction (lane 1 and 5). […] To further investigate whether c-Src phosphorylates Tyr-747 or Tyr-759 of β3 integrin or both residues, kinase assay were performed using peptide derived from these two distinct sites of β3 integrin as substrates (FIG. 20 E). […] In the presence of Tyr-747/Tyr-759 β3 integrin cytoplasmic peptide, a dramatic increase in [γ-^32P] ATP incorporation was observed as compared to control peptides devoid of tyrosine motifs. Similar results were observed using purified recombinant c-Src protein. As anticipated, [γ-^32P] […]

[4] = test system: HUVECs; assay: Cell adhesion assay of HUVECs on vitronectin (Example 5); assay type: cell-based, Human
Method: Cells were washed twice with sterile PBS and re-suspended in DMEM. The cell suspensions were added to ligand-coated wells and placed in humidified incubator for 45 min. Wells were gently washed three times with DMEM and photographs were taken. The numbers of attached and spread cells per field were counted.

[5] = test system: HUVECs; assay: Cell migration assay of HUVECs on vitronectin, VEGF as agonist (Example 5); assay type: cell-based, Human; details: vitronectin as substrate
Method: To assess the role of Src-mediated β3 integrin tyrosine phosphorylation in αvβ3 integrin dependent EC migration, HUVECs transfected with various forms of Src were evaluated in migration assays using VEGF as an agonist and vitronectin as a substrate. […] To further evaluate the c-Src mediated β3 integrin cytoplasmic tyrosine motifs phosphorylation in αvβ3 integrin dependent endothelial cell migration, wild type and DiYF mouse lung microvascular endothelial cells were transfected with wild type, dominant negative and catalytically active form of c-Src and stimulated with VEGF (FIG. 23 B).
Transwell tissue culture inserts were coated with αvβ3 integrin ligand vitronectin for 24 h at 4° C. Endothelial cells were transfected with various forms of c-Src or treated with inhibitors and were trypsinized; then 1×10^5 cells were added into each well. Cells were allowed to migrate for 12 h and fixed with 70% methanol for 15 min and stained with Giemsa. The non-migrated cells adhered to the top surface were removed and three random 10× fields were photographed using an inverted phase contrast microscopy.

Compound: YGRKKRRQRRR G DTANNPL Yp KEATSTFT-COOH (YGRKKRRQRRRGDTANNPL[pY]KEATSTFT-OH; N-terminus assumed; SMILES CC(C)C[C@H](NC(=O)[C@@H]1CCCN1C(=O)[C@H](CC(N)=O)NC(=O)[C@H](CC(N)=O)NC(=O)[C@H](C)NC(=O)[C@@H](NC(=O)[C@H](CC(=O)O)NC(=O)CNC(=O)[C@H](CCCNC(=N)N)NC(=O)[C@H](CCCNC(=N)N)NC(=O)[C@H](CCCNC(=N)N)NC(=O)[C@H](CCC(N)=O)NC(=O)[C@H](CCCNC(=N)N)NC(=O)[C@H](CCCNC(=N)N)NC(=O)[C@H](CCCCN)NC(=O)[C@H](CCCCN)NC(=O)[C@H](CCCNC(=N)N)NC(=O)CNC(=O)[C@@H](N)Cc1ccc(O)cc1)[C@@H](C)O)C(=O)N[C@@H](Cc1ccc(OP(=O)(O)O)cc1)C(=O)N[C@@H](CCCCN)C(=O)N[C@@H](CCC(=O)O)C(=O)N[C@@H](C)C(=O)N[C@H](C(=O)N[C@@H](CO)C(=O)N[C@H](C(=O)N[C@@H](Cc1ccccc1)C(=O)N[C@H](C(=O)O)[C@@H](C)O)[C@@H](C)O)[C@@H](C)O; listed as Homo sapiens) [SEQ ID NO: 2]
- hemoglobin concentration in Matrigel plugs, fold lower compared to control peptide [1]: at least 3.5 fold

Compound: CN(C)S(=O)(=O)c1ccc2c(c1)C(=Cc1cc3c([nH]1)CCCC3)C(=O)N2 [SU6656, 2-oxo-3(4,5,6,7-tetrahydro-1-H-indol-2-ylmethylene)-2,3-dihydro-1H-indole-5-sulfonic acid dimethylamide]
- effect on β3 integrin tyrosine phosphorylation [2]: completely blocked
- effect on phosphorylation of β3 integrin cytoplasmic domain by immunoprecipitated c-Src [3]: blocked this process
- effect on cell adhesion to vitronectin [4]: caused impairment of cell adhesion to vitronectin
- effect on EC migration triggered by VEGF [5]: reduced EC migration triggered by VEGF
